{
  "source": "patent US20260218121A1",
  "about": "“METHODS FOR CELL SURFACE REMODELING” (NANTES UNIVERSITÉ, priority 2023, published 2026)",
  "key": {"[1]": {"settings": "Ruben et al., biomacromolecules, 2019, 20, 2726; cited from earlier work"}, "[2]": {"test_system": "DC2.4 cells", "assay": "Viability by live and dead assay (electro-bioconjugation or glyco-engineering)", "settings": "glyco-engineering (comparative), concentration of 250 μM, 72 h"}},
  "data": [
    {"compound": "CC(=O)OC[C@H]1OC(OC(C)=O)[C@@H](NC(=O)CN=[N+]=[N-])[C@@H](OC(C)=O)[C@@H]1OC(C)=O", "note": "(some centres unmarked) [Ac4ManNAz]", "values": [
      {"measurement": "concentration that can be used", "setting": "[1]", "value": "≤ 100", "unit": "µM"},
      {"measurement": "viability", "setting": "[2]", "value": 30, "unit": "%"}
    ]}
  ]
}
